Columns and labels:
Assay type in all cases: in vivo
[1] = tested on: Amaranthus tamariscinus (Common waterhemp, AMATA), Sensitive biotype (w.1); assay: Greenhouse herbicidal activity test, sensitive waterhemp w.1; conditions: use rate 4 g/ha, scale 0 to 100 (100 = complete destruction, 0 = no damage)
Excerpt: (§1) The culture containers used were plastic flowerpots containing loamy sand with approximately 3.0% of humus as the substrate. The seeds of the test plants were sown separately for each species and/or resistant biotype. For the pre-emergence treatment, the active ingredients, which had been suspended or emulsified in water, were applied directly after sowing by means of finely distributing nozzles. The containers were irrigated gently to promote germination and growth and subsequently covered with transparent plastic hoods until the plants had rooted. This cover caused uniform germination of the test plants, unless this had been impaired by the active ingredients. For the post-emergence treatment, the test plants were first grown to a height of 3 to 15 cm, depending on the plant habit, and only then treated with the active ingredients which had been suspended or emulsified in water. For this purpose, the test plants were either sown directly and grown in the same containers, or they were first grown separately as seedlings and transplanted into the test containers a few days prior to treatment. Depending on the species, the plants were kept at 10-25° C. or 20-35° C., respectively. The test period extended over 2 to 4 weeks. During this time, the plants were tended, and their response to the individual treatments was evaluated. The evaluation was carried out by using a scale from 0 to 100. […]

[2] = tested on: Amaranthus tamariscinus (Common waterhemp, AMATA), PPO resistant biotype 1 (w.2); assay: Greenhouse herbicidal activity test, PPO resistant waterhemp w.2; conditions: use rate 4 g/ha, scale 0 to 100
Excerpt: as §1

[3] = tested on: Amaranthus tamariscinus (Common waterhemp, AMATA), PPO resistant biotype 2 (w.3); assay: Greenhouse herbicidal activity test, PPO resistant waterhemp w.3; conditions: use rate 4 g/ha, scale 0 to 100
Excerpt: as §1

[4] = tested on: Amaranthus tamariscinus (Common waterhemp, AMATA), PPO resistant biotype 3 that was shown to contain the ΔG210 mutation (w.4); assay: Greenhouse herbicidal activity test, PPO resistant waterhemp w.4; conditions: use rate 4 g/ha; PPO resistant biotype 3 with ΔG210 mutation; scale 0 to 100
Excerpt: as §1

SMILES: CCS(=O)(=O)Nc1cc(-n2nc(C(F)(F)F)n(C)c2=O)c(F)cc1C(N)=S [(I).1, bencarbazone]
- Weed control (%) w.1 [1]: 92%
- Weed control (%) w.2 [2]: 100%
- Weed control (%) w.3 [3]: 100%
- Weed control (%) w.4 [4]: 82%

From patent publication US20190166841A1, “Method for Controlling PPO Resistant Weeds” (BASF SE, priority 2016, published 2019)
